According to ChEMBL document CHEMBL4177670, “Potential antimicrobial agents from triazole-functionalized 2H-benzo[b][1,4]oxazin-3(4H)-ones” (2017):
Values after ≈ are worked out from the molar mass of the structure shown.

How the values were obtained:
Staphylococcus aureus [1] = assay: Antibacterial activity against Staphylococcus aureus MLS-16 MTCC 2940 after 24 hrs by agar well diffusion method; assay type: functional; details: MLS-16 MTCC 2940, 24 h
Staphylococcus aureus [2] = assay: Bactericidal activity against Staphylococcus aureus MLS-16 MTCC 2940 measured after 24 hrs; assay type: functional; details: MLS-16 MTCC 2940, 24 h
Escherichia coli [3] = assay: Antibacterial activity against Escherichia coli MTCC 739 after 24 hrs by agar well diffusion method; assay type: functional; details: MTCC 739, 24 h
Escherichia coli [4] = assay: Bactericidal activity against Escherichia coli MTCC 739 measured after 24 hrs; assay type: functional; details: MTCC 739, 24 h
Candida albicans [5] = assay: Fungicidal activity against Candida albicans MTCC 3017 measured after 24 hrs; assay type: functional; details: MTCC 3017, 24 h
Candida albicans [6] = assay: Antifungal activity against Candida albicans MTCC 3017; assay type: functional
Raoultella planticola [7] = assay: Antibacterial activity against Klebsiella planticola MTCC 530 after 24 hrs by agar well diffusion method; assay type: functional; details: MTCC 530, 24 h
Raoultella planticola [8] = assay: Bactericidal activity against Klebsiella planticola MTCC 530 measured after 24 hrs; assay type: functional; details: MTCC 530, 24 h
Bacillus subtilis [9] = assay: Bactericidal activity against Bacillus subtilis MTCC 121 measured after 24 hrs; assay type: functional; details: MTCC 121, 24 h
Micrococcus luteus [10] = assay: Bactericidal activity against Micrococcus luteus MTCC 2470 measured after 24 hrs; assay type: functional; details: MTCC 2470, 24 h
Staphylococcus aureus [11] = assay: Antibacterial activity against Staphylococcus aureus MTCC 96 after 24 hrs by agar well diffusion method; assay type: functional; details: MTCC 96, 24 h
Bacillus subtilis [12] = assay: Antibacterial activity against Bacillus subtilis MTCC 121 after 24 hrs by agar well diffusion method; assay type: functional; details: MTCC 121, 24 h
Staphylococcus aureus [13] = assay: Bactericidal activity against Staphylococcus aureus MTCC 96 measured after 24 hrs; assay type: functional; details: MTCC 96, 24 h
Micrococcus luteus [14] = assay: Antibacterial activity against Micrococcus luteus MTCC 2470 after 24 hrs by agar well diffusion method; assay type: functional; details: MTCC 2470, 24 h
Pseudomonas aeruginosa = assay: microbe, parasite or virus in culture; details: MTCC 2453, 24 h
Description: Bactericidal activity against Pseudomonas aeruginosa MTCC 2453 measured after 24 hrs

Row | SMILES | MIC (Staphylococcus aureus [1]) | MIC (Escherichia coli [3]) | MIC (Candida albicans [6]) | MIC (Staphylococcus aureus [11]) | MIC (Bacillus subtilis [12]) | MIC (Micrococcus luteus [14]) | MBC (Staphylococcus aureus [2]) | MBC (Escherichia coli [4]) | MFC (Candida albicans [5]) | MIC (Raoultella planticola [7]) | MBC (Raoultella planticola [8]) | MBC (Bacillus subtilis [9]) | MBC (Micrococcus luteus [10]) | MBC (Staphylococcus aureus [13]) | MBC (Pseudomonas aeruginosa)
1 | O=C1COc2ccccc2N1Cc1cn(Cc2ccccc2)nn1 | 1.9 mg/L (≈ 5.93 µM) | 3.9 mg/L (≈ 12.2 µM) | – | – | – | – | 3.9 mg/L (≈ 12.2 µM) | 7.8 mg/L (≈ 24.3 µM) | – | – | – | – | – | – | –
2 | O=C1COc2ccccc2N1Cc1cn(-c2ccc([N+](=O)[O-])cc2)nn1 | – | – | 15.6 mg/L (≈ 44.4 µM) | – | – | – | – | – | 31.2 mg/L (≈ 88.8 µM) | – | – | – | – | – | –
3 | O=C1COc2ccc(Cl)cc2N1Cc1cn(-c2ccc([N+](=O)[O-])cc2)nn1 | – | – | 7.8 mg/L (≈ 20.2 µM) | – | – | – | – | – | 15.6 mg/L (≈ 40.4 µM) | – | – | – | – | – | –
4 | O=C1COc2ccccc2N1Cc1cn(-c2ccccc2)nn1 | – | – | – | 3.9 mg/L (≈ 12.7 µM) | – | – | – | – | – | 3.9 mg/L (≈ 12.7 µM) | 7.8 mg/L (≈ 25.5 µM) | – | – | 7.8 mg/L (≈ 25.5 µM) | –
5 | Cc1ccc(-n2cc(CN3C(=O)COc4ccc(Cl)cc43)nn2)cc1 | 1.9 mg/L (≈ 5.36 µM) | – | 7.8 mg/L (≈ 22 µM) | 1.9 mg/L (≈ 5.36 µM) | 1.9 mg/L (≈ 5.36 µM) | 1.9 mg/L (≈ 5.36 µM) | 3.9 mg/L (≈ 11 µM) | – | 15.6 mg/L (≈ 44 µM) | 3.9 mg/L (≈ 11 µM) | 7.8 mg/L (≈ 22 µM) | 3.9 mg/L (≈ 11 µM) | 3.9 mg/L (≈ 11 µM) | 3.9 mg/L (≈ 11 µM) | –
6 | Cc1ccccc1-n1cc(CN2C(=O)COc3ccc(Cl)cc32)nn1 | 1.9 mg/L (≈ 5.36 µM) | 3.9 mg/L (≈ 11 µM) | 7.8 mg/L (≈ 22 µM) | 1.9 mg/L (≈ 5.36 µM) | 1.9 mg/L (≈ 5.36 µM) | 1.9 mg/L (≈ 5.36 µM) | 3.9 mg/L (≈ 11 µM) | 7.8 mg/L (≈ 22 µM) | 15.6 mg/L (≈ 44 µM) | 3.9 mg/L (≈ 11 µM) | 7.8 mg/L (≈ 22 µM) | 3.9 mg/L (≈ 11 µM) | 3.9 mg/L (≈ 11 µM) | 3.9 mg/L (≈ 11 µM) | –
7 | O=C(O)c1cn(C2CC2)c2cc(N3CCNCC3)c(F)cc2c1=O [CIPROFLOXACIN] | 0.9 mg/L (≈ 2.72 µM) | 0.9 mg/L (≈ 2.72 µM) | – | 0.9 mg/L (≈ 2.72 µM) | 0.9 mg/L (≈ 2.72 µM) | 0.9 mg/L (≈ 2.72 µM) | 0.9 mg/L (≈ 2.72 µM) | 0.9 mg/L (≈ 2.72 µM) | – | 0.9 mg/L (≈ 2.72 µM) | 0.9 mg/L (≈ 2.72 µM) | 0.9 mg/L (≈ 2.72 µM) | 0.9 mg/L (≈ 2.72 µM) | 0.9 mg/L (≈ 2.72 µM) | 0.9 mg/L (≈ 2.72 µM)
8 | Clc1ccc(COC(Cn2ccnc2)c2ccc(Cl)cc2Cl)c(Cl)c1 (centres undefined) [MICONAZOLE] | – | – | 7.8 mg/L (≈ 18.7 µM) | – | – | – | – | – | 7.8 mg/L (≈ 18.7 µM) | – | – | – | – | – | –

Continued, in another order:

Row | MIC (Staphylococcus aureus [1]) | MIC (Escherichia coli [3]) | MIC (Candida albicans [6]) | MIC (Staphylococcus aureus [11]) | MIC (Bacillus subtilis [12]) | MIC (Micrococcus luteus [14]) | SMILES | MBC (Staphylococcus aureus [2]) | MBC (Escherichia coli [4]) | MFC (Candida albicans [5]) | MIC (Raoultella planticola [7]) | MBC (Raoultella planticola [8]) | MBC (Bacillus subtilis [9]) | MBC (Micrococcus luteus [10]) | MBC (Staphylococcus aureus [13]) | MBC (Pseudomonas aeruginosa)
9 | – | – | 7.8 mg/L (≈ 22 µM) | – | – | – | O=C1COc2ccc(Cl)cc2N1Cc1cn(Cc2ccccc2)nn1 | – | – | 15.6 mg/L (≈ 44 µM) | – | – | – | – | – | –
10 | – | 7.8 mg/L (≈ 24.1 µM) | 3.9 mg/L (≈ 12 µM) | – | – | – | O=C1COc2ccccc2N1Cc1cn(-c2ccc(F)cc2)nn1 | – | 15.6 mg/L (≈ 48.1 µM) | 7.8 mg/L (≈ 24.1 µM) | – | – | – | – | – | –
11 | 1.9 mg/L (≈ 5.12 µM) | – | 7.8 mg/L (≈ 21 µM) | – | – | – | COc1ccc(-n2cc(CN3C(=O)COc4ccc(Cl)cc43)nn2)cc1 | 3.9 mg/L (≈ 10.5 µM) | – | 15.6 mg/L (≈ 42.1 µM) | – | – | – | – | – | –
12 | 3.9 mg/L (≈ 12.2 µM) | 3.9 mg/L (≈ 12.2 µM) | 7.8 mg/L (≈ 24.3 µM) | – | – | – | Cc1ccc(-n2cc(CN3C(=O)COc4ccccc43)nn2)cc1 | 7.8 mg/L (≈ 24.3 µM) | 7.8 mg/L (≈ 24.3 µM) | 15.6 mg/L (≈ 48.7 µM) | 3.9 mg/L (≈ 12.2 µM) | 7.8 mg/L (≈ 24.3 µM) | – | – | – | –
13 | 3.9 mg/L (≈ 12.2 µM) | 3.9 mg/L (≈ 12.2 µM) | 7.8 mg/L (≈ 24.3 µM) | – | – | – | Cc1ccccc1-n1cc(CN2C(=O)COc3ccccc32)nn1 | 7.8 mg/L (≈ 24.3 µM) | 7.8 mg/L (≈ 24.3 µM) | 15.6 mg/L (≈ 48.7 µM) | 3.9 mg/L (≈ 12.2 µM) | 7.8 mg/L (≈ 24.3 µM) | – | – | – | –
14 | 1.9 mg/L (≈ 5.3 µM) | 3.9 mg/L (≈ 10.9 µM) | 7.8 mg/L (≈ 21.7 µM) | 3.9 mg/L (≈ 10.9 µM) | 1.9 mg/L (≈ 5.3 µM) | 1.9 mg/L (≈ 5.3 µM) | O=C1COc2ccc(Cl)cc2N1Cc1cn(-c2ccc(F)cc2)nn1 | 3.9 mg/L (≈ 10.9 µM) | 7.8 mg/L (≈ 21.7 µM) | 15.6 mg/L (≈ 43.5 µM) | 3.9 mg/L (≈ 10.9 µM) | 7.8 mg/L (≈ 21.7 µM) | 3.9 mg/L (≈ 10.9 µM) | 3.9 mg/L (≈ 10.9 µM) | 7.8 mg/L (≈ 21.7 µM) | –
15 | – | – | 7.8 mg/L (≈ 22.9 µM) | – | – | – | O=C1COc2ccccc2N1Cc1cn(-c2ccc(Cl)cc2)nn1 | – | – | 15.6 mg/L (≈ 45.8 µM) | – | – | – | – | – | –
16 | – | 7.8 mg/L (≈ 23.2 µM) | 3.9 mg/L (≈ 11.6 µM) | – | – | – | COc1ccc(-n2cc(CN3C(=O)COc4ccccc43)nn2)cc1 | – | 15.6 mg/L (≈ 46.4 µM) | 7.8 mg/L (≈ 23.2 µM) | – | – | – | – | – | –
